Measurements: patent US9988416B2, “Alkynyl nucleoside analogs as inhibitors of human rhinovirus” (NOVARTIS AG, priority 2016, dated 2018)

Legend:
[1] = tested on: HRV10; test: HRV cytopathic effect (CPE) assay; assay type: cell-based; details: Human rhinovirus sp., H1-HeLa cells, 72 h at 33° C., CellTiter-Glo, read-out: Activity on HRV strains and other viruses: HRV10
Procedure: (§1) HRV Cytopathic Effect (CPE) Assay.
(§2) Compounds were serially diluted in DMSO in half-logarithmic steps starting from 5 mM. Of each dilution, 0.5 μL were transferred to the assay plates. H1-HeLa cells were added to the assay-ready compound plates in 45 μL DMEM supplemented with 0.1% BSA (Gibco, 15260), 1× penicillin/streptomycin solution (CellGro/Mediatech, Manassas, Va.; 30-002-CI), and 1× non-essential amino acids (CellGro; 25-025-CI) at 5000 cells/well into triplicate 384-well plates and incubated at 33° C. for 6 hours. Control wells included DMSO alone (100% inhibition) and DMSO plus virus (0% inhibition). After 6 h incubation at 33° C., 5 μL of human rhinovirus stock was added at an MOI that effectively kills 99% of cells within 72 hours. Plates were then incubated for 72 h at 33° C. Cell viability was determined using the CellTiter-Glo® Luminescent Cell Viability Assay (Promega, G7573) according to the manufacturer's protocol and a POLARstar Omega Luminometer (BMG Labtech).

[2] = tested on: HRV14; test: HRV cytopathic effect (CPE) assay; assay type: cell-based; details: Human rhinovirus sp., H1-HeLa cells, 72 h at 33° C., CellTiter-Glo, read-out: Activity on HRV strains and other viruses: HRV14
Procedure: as §1, §2

[3] = tested on: HRV16; test: HRV cytopathic effect (CPE) assay; assay type: cell-based; details: Human rhinovirus sp., H1-HeLa cells, 72 h at 33° C., CellTiter-Glo, read-out: Activity on HRV strains and other viruses: HRV16
Procedure: as §1, §2

[4] = tested on: HRV29; test: HRV cytopathic effect (CPE) assay; assay type: cell-based; details: Human rhinovirus sp., H1-HeLa cells, 72 h at 33° C., CellTiter-Glo, read-out: Activity on HRV strains and other viruses: HRV29
Procedure: as §1, §2

[5] = tested on: HRV39; test: HRV cytopathic effect (CPE) assay; assay type: cell-based; details: Human rhinovirus sp., H1-HeLa cells, 72 h at 33° C., CellTiter-Glo, read-out: Activity on HRV strains and other viruses: HRV39
Procedure: as §1, §2

[6] = tested on: HRV86; test: HRV cytopathic effect (CPE) assay; assay type: cell-based; details: Human rhinovirus sp., H1-HeLa cells, 72 h at 33° C., CellTiter-Glo, read-out: Activity on HRV strains and other viruses: HRV86
Procedure: as §1, §2

[7] = tested on: HRV15 (c-type); test: HRV replicon assay (Group C replicon); assay type: cell-based; details: Human rhinovirus sp., HRV15, H1-HeLa, read-out: Activity on HRV strains and other viruses: HRV15 (c-type)
Procedure: This assay was based on the Group C replicon previously described (Mello et al, Antimicrobial Agents and Chemotherapy, 2014) with the modification that the P1 region was replaced with the cDNA encoding Nanoluciferase (Promega Corporation, Madiso, Wis.) Compounds were serially diluted in DMSO in half-logarithmic steps starting from 5 mM. Of each dilution, 0.5 μL were transferred to the assay plates. H1-HeLa cells were trypsinized, washed twice with ice-cold OptiMem® Gibco, 31985), resuspended at 1.5×10^7 cells/ml in OptiMem®, and stored on ice. A total of 6×10^6 cells were electroporated (270 V, 950 μF, ∞ resistance) with 25 ng of in vitro-transcribed RNA and allowed to rest on ice for 10 min. Electroporated cells were then diluted DMEM supplemented with 0.1% BSA (Gibco, 15260), 1× penicillin/streptomycin solution (CellGro/Mediatech, Manassas, Va.; 30-002-CI) to a final concentration 4×10^5 cells/ml. 50 μl of cells were then added to the compounds then incubated for […] at 33° C. Luciferase signal was then measured after 48 h using the NanoGlo® Detection Kit Assay (Promega, N1150) according to the manufacturer's protocol and a POLARstar Omega Luminometer (BMG Labtech).

[8] = tested on: Chikungunya virus; test: Activity on Chikungunya virus; assay type: cell-based; details: read-out: Activity on HRV strains and other viruses: Chikungunya virus
[9] = tested on: Dengue virus (PBMCs); test: Activity on Dengue virus in PBMCs; assay type: cell-based; details: PBMC, read-out: Activity on HRV strains and other viruses: Dengue virus (PBMCs)
[10] = tested on: MT4; test: MT4 cytotoxicity assay; assay type: cell-based; details: N = 2; 3 or 5 days at 37° C., CellTiter-Glo
Procedure: (§3) MT4 and PC3 Cytotoxicity Assay. Compounds were serially diluted in DMSO in half-logarithmic steps starting from 10 mM. 0.5 μL of serially diluted compound was transferred to the assay plates (Greiner cat#781080). Cells were added to the assay-ready compound plates in 50 μL of RPMI 1640 medium supplemented with 10% FBS (NCS Lot OS-161071), 1× penicillin/streptomycin solution (CellGro/Mediatech, Manassas, Va.; 30-002-CI), and incubated at 37° C. for 3 or 5 days. Control wells included DMSO alone (100% inhibition). Cell viability was determined using the CellTiter-Glo® Luminescent Cell Viability Assay (Promega, G7573) according to the manufacturer's protocol and a POLARstar Omega Luminometer (BMG Labtech).

[11] = tested on: K562; test: Cytotoxicity (CC50 assay) in K562; assay type: cell-based; details: N = 3; CC50, 72 hours, Cell-Titer Glo
Procedure: (§4) Cytotoxicity (CC50 Assay) in HepG2 & K562 White TC grade Greiner 384-well assay plates were stamped with 0.5 ul of compound in 90% DMSO/10% water. HepG2 cells were trypsinized and collected into 50 ml falcon tube. K562 suspension cells were collected in 50 ml falcon tube. Both tubes containing cells were spun in benchtop centrifuge at 1200 rpm for 5 mins. The supernatant was discarded and the cell pellet was re-suspended in fresh culture media (HepG2: DMEM:F12 mix+10% FBS+1% Pen/Strep & K562: IMDM+10% FBS+1% Pen-Strep). Cells were counted using a hemocytometer and cells were diluted to a working suspension of 50,000 cells/ml for HepG2, and 20,000 cells/ml for K562. 50 ul of cells suspension was added to each well of 384-assay plate. Assay plates were incubated at 37° C., 5% CO2, 90% humidity incubator for 72 hours. Assay plates were then treated with 25 ul of Promega's Cell-Titer Glo® reagent, and incubated at room temperature for 10 mins. Plates were read on PolarStar-Omega using the Luminescence setting and a Gain of 3300.

[12] = tested on: HepG2; test: Cytotoxicity (CC50 assay) in HepG2; assay type: cell-based; details: N = 7+; CC50, 72 hours, Cell-Titer Glo
Procedure: as §4

[13] = tested on: PC3; test: PC3 cytotoxicity assay; assay type: cell-based; details: 3 or 5 days at 37° C., CellTiter-Glo
Procedure: as §3

[14] = tested on: PC-3; test: Cox/SDH ratio assay in PC-3 cells; assay type: cell-based; details: Cellular assays (MP-Nuc); concentration giving Cox/SDH ratio <0.5, PC-3 cells
[15] = tested on: HepG2; test: Cox/SDH ratio assay in HepG2 cells; assay type: cell-based; details: Cellular assays (MP-Nuc); concentration giving Cox/SDH ratio <0.5, HepG2 cells
[16] = target: T1, Human Mitochondrial RNA polymerase (POLRMT) (Homo sapiens, UniProt O00411); test: Human mitochondrial RNA polymerase single nucleotide incorporation assay; assay type: biochemical; details: 500 μM nucleoside triphosphate, 5 min at RT
T1 construct: Purified full length POLRMT (Enzymax, USA); purchased Enzymax
Procedure: Human Mitochondrial RNA Polymerase Assay.
Human mitochondrial RNA polymerase (POLRMT) single nucleotide Incorporation assay was adapted from Arnold et al. (Sensitivity of mitochondrial transcription and resistance of RNA polymerase II dependent nuclear transcription to antiviral ribonucleosides. PloS Pathogen 8(11):e1003030.). Briefly, elongation complexes were formed by incubating 500 nM POLRMT with 250 nM annealed DNA template/RNA primer duplex, in assay buffer (25 mM Tris-HCl, pH 8, 50 mM KCl, 10 mM MgCl2, 1 mM dithiothreitol, 0.2 U/μL RNasin) for 1.5 min at room temperature (RT), followed by rapid mixing with 500 μM nucleoside triphosphate substrate or inhibitor. Purified full length POLRMT (Enzymax, USA) was stored in 10 mM Tris-HCl (pH 8.0), 1 mM DTT, 100 mM NaCl and 20% glycerol. The volume of POLRMT added to any reaction was always less than or equal to one-tenth the total volume. Primer-template consisted of a 5′-FAM labeled […] RNA oligonucleotide primer SEQ. ID. NO. 2 (5′-UUUUGCCGCGCC-3′) annealed to the appropriate 18-mer DNA template to allow single addition of A, C, G or U ribonucleotide (Arnold et al. 2012). […] Electrophoresis was performed in 1×TBE buffer at 600 V. Gels were visualized with a Typhoon Imager under fluorescence detection mode and quantified with the Image Quant TL Software (GE Healthcare, Piscataway, N.J.). […]

T1 sequence (O00411 42-1230): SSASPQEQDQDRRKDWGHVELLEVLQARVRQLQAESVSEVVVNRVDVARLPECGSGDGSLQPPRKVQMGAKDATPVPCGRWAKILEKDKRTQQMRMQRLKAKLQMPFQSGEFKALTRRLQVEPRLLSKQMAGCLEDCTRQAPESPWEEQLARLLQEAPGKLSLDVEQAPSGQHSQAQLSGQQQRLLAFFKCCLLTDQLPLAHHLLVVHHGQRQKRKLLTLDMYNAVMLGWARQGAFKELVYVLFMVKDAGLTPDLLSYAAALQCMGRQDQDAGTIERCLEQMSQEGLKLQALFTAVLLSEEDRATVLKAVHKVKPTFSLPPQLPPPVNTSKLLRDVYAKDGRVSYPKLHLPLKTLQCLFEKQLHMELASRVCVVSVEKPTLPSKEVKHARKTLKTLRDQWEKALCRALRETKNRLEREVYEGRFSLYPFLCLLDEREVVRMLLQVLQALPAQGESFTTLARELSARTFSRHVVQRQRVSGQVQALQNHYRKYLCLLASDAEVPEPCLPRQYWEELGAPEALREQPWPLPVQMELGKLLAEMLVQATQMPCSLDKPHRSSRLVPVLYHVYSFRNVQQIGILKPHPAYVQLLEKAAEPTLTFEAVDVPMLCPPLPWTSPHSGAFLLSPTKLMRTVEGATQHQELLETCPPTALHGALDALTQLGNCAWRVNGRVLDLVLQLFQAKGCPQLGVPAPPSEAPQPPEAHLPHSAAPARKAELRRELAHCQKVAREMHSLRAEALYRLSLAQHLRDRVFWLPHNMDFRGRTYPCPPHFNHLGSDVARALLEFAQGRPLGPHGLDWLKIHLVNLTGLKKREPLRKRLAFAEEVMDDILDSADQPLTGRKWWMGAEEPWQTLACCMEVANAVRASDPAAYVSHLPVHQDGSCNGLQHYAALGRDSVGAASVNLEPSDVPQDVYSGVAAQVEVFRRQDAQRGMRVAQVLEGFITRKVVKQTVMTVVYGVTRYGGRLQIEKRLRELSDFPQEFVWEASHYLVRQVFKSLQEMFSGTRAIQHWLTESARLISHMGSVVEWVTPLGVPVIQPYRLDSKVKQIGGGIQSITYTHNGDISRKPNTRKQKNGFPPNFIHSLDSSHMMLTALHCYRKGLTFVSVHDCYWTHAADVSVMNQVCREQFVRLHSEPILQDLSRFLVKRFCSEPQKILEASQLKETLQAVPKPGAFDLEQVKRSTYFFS

CC#C[C@]1(O)[C@H](n2ccc3c(N)ncnc32)O[C@](F)(COP(=O)(OCOC(=O)OC(C)C)OCOC(=O)OC(C)C)[C@H]1O [Example 2, ((2S,3S,4R,5R)-5-(4-amino-7H-pyrrolo[2,3-d]pyrimidin-7-yl)-2-fluoro-3,4-dihydroxy-4-(prop-1-yn-1-yl)tetrahydrofuran-2-yl)methyl bis(((1-isopropoxycarbonyl)oxy)methyl) phosphate]
EC50 [1]: 800 nM
EC50 [2]: 700 nM
EC50 [3]: 600 nM
EC50 [4]: 700 nM
EC50 [5]: 600 nM
EC50 [6]: 400 nM
EC50 [7]: 700 nM
EC50 [8]: 1000 nM
EC50 [9]: 2050 nM
Cytotoxicity Assay Results: MT4 [10]: >100 µM
Cytotoxicity Assay Results: K562 [11]: >100 µM
Cytotoxicity Assay Results: HepG2 [12]: >100 µM
Cytotoxicity Assay Results: PC3 [13]: >200 µM
PC-3 Cox/SDH ratio <0.5 [14]: >200 µM
HepG2 Cox/SDH ratio <0.5 [15]: >200 µM

[N-]=[N+]=N[C@]1(CO)O[C@@H](n2ccc(N)nc2=O)[C@H](O)[C@@H]1O [4′-Azido cytidine, 4′-azido-cytidine, reference compound]
PC-3 Cox/SDH ratio <0.5 [14]: 25 µM
HepG2 Cox/SDH ratio <0.5 [15]: 200 µM

CC#C[C@]1(O)[C@H](n2ccc3c(N)ncnc32)O[C@](F)(COP(=O)(O)OP(=O)(O)OP(=O)(O)O)[C@H]1O [Example 3]
Human Mitochondrial RNA polymerase incorporation [16]: 1.9% (Examples)

C[C@@]1(F)[C@H](O)[C@@H](COP(=O)(O)OP(=O)(O)OP(=O)(O)O)O[C@H]1n1ccc(=O)[nH]c1=O [Sofosbuvir TP, reference compound]
Human Mitochondrial RNA polymerase incorporation [16]: 1.9% (Sofosbuvir TP)
